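Cells were grown in 96-well plates and exposed to each compound for 48 hours at five concentrations; endpoints were interpolated linearly between bracketing concentrations, or set to the highest concentration if not reached. Here, GI50 denotes the concentration required for 50% inhibition of growth.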 Calls of active or inactive are those of the source. Rule as the data show it: active = GI50 up to about 1.1 µM and inactive = higher. Square brackets hold non-standard residues; d marks the D form. Peptide text beside a SMILES is read from it. * marks the point of attachment. AllylGly = C=CC[CH](N)C(=O)O; Boc = CC(C)(C)OC(=O)*; OtBu = CC(C)(C)O*
Assays:
Test in all cases: DTP human tumour cell line panel, 48 h
MDA-MB-231 = system: MDA-MB-231
NCI-H226 = system: NCI-H226
Hs-578T = system: Hs-578T
NCI/ADR-RES = system: NCI/ADR-RES
NCI-H460 = system: NCI-H460
DU-145 = system: DU-145
HL-60 = system: HL-60
RPMI-8226 = system: RPMI-8226
OVCAR-8 = system: OVCAR-8
CAKI-1 = system: CAKI-1
SF-539 = system: SF-539
KM12 = system: KM12
UO-31 = system: UO-31
TK-10 = system: TK-10
K562 = system: K562
A498 = system: A498
SNB-75 = system: SNB-75
ACHN = system: ACHN
SK-MEL-28 = system: SK-MEL-28
UACC-62 = system: UACC-62

Compound | GI50 (MDA-MB-231) | GI50 (NCI-H226) | GI50 (Hs-578T) | GI50 (NCI/ADR-RES) | GI50 (NCI-H460) | GI50 (DU-145) | GI50 (HL-60) | GI50 (RPMI-8226) | GI50 (OVCAR-8) | GI50 (CAKI-1) | GI50 (SF-539) | GI50 (KM12) | GI50 (UO-31) | GI50 (TK-10) | GI50 (K562) | GI50 (A498) | GI50 (SNB-75) | GI50 (ACHN) | GI50 (SK-MEL-28) | GI50 (UACC-62)
COc1cc(OC)c2c(c1OC)OCC(Cc1ccc(O)cc1)C2=O (stereo not given) | > 25 µM (inactive) | > 25 µM (inactive) | > 25 µM (inactive) | > 25 µM (inactive) | > 25 µM (inactive) | > 25 µM (inactive) | 11.3 µM (inactive) | > 25 µM (inactive) | > 25 µM (inactive) | > 25 µM (inactive) | > 25 µM (inactive) | > 25 µM (inactive) | > 25 µM (inactive) | > 25 µM (inactive) | > 25 µM (inactive) | > 25 µM (inactive) | > 25 µM (inactive) | > 25 µM (inactive) | > 25 µM (inactive) | > 25 µM (inactive)
C=CCC(NC(=O)C(CC(=O)OC(C)(C)C)NC(=O)OC(C)(C)C)C(=O)OC (stereo not given) (Boc-Asp(OtBu)-[AllylGly]-OMe; configuration not given here) | > 100 µM (inactive) | > 100 µM (inactive) | > 100 µM (inactive) | > 100 µM (inactive) | > 100 µM (inactive) | > 100 µM (inactive) | 30.1 µM (inactive) | 32.4 µM (inactive) | 16 µM (inactive) | > 100 µM (inactive) | > 100 µM (inactive) | > 55.2 µM (inactive) | > 100 µM (inactive) | > 100 µM (inactive) | 47.8 µM (inactive) | > 100 µM (inactive) | 97.9 µM (inactive) | > 100 µM (inactive) | 47.4 µM (inactive) | 48.3 µM (inactive)
CCOP1(=O)CC(C)=C(Cl)C(O)C1 (stereo not given) | > 100 µM (inactive) | > 100 µM (inactive) | > 100 µM (inactive) | > 100 µM (inactive) | > 100 µM (inactive) | > 100 µM (inactive) | > 100 µM (inactive) | > 100 µM (inactive) | > 100 µM (inactive) | > 100 µM (inactive) | > 100 µM (inactive) | > 100 µM (inactive) | > 100 µM (inactive) | > 100 µM (inactive) | > 100 µM (inactive) | > 100 µM (inactive) | 40.3 µM (inactive) | > 100 µM (inactive) | > 100 µM (inactive) | > 100 µM (inactive)
c1ccc2c(OCC3CO3)ccc(OCC3CO3)c2c1 (stereo not given) | 10.5 µM (inactive) | 12.1 µM (inactive) | 5.32 µM (inactive) | 4.18 µM (inactive) | 3.42 µM (inactive) | 2.36 µM (inactive) | 0.321 µM (active) | 3.04 µM (inactive) | 2.2 µM (inactive) | 1.74 µM (inactive) | 2.21 µM (inactive) | 4.14 µM (inactive) | 1.61 µM (inactive) | 13.5 µM (inactive) | 2 µM (inactive) | 17 µM (inactive) | 14.6 µM (inactive) | 1.89 µM (inactive) | 9.98 µM (inactive) | 3.06 µM (inactive)
COC(=O)C1=C(OC(=O)/C=C/c2ccccc2)C(C(=O)OC)[C@@]2(O)[C@@H](C(=O)OC)[C@H](C)C[C@@H]1[C@@H]2C(=O)OC (stereo not given in full) | 14.8 µM (inactive) | 41.1 µM (inactive) | 14.7 µM (inactive) | 16.7 µM (inactive) | 17 µM (inactive) | 18 µM (inactive) | 39.2 µM (inactive) | 8.47 µM (inactive) | 14.2 µM (inactive) | 15.7 µM (inactive) | 19.8 µM (inactive) | 27.9 µM (inactive) | 17 µM (inactive) | 34.4 µM (inactive) | > 100 µM (inactive) | 13.3 µM (inactive) | 19.4 µM (inactive) | 22.8 µM (inactive) | 28.8 µM (inactive) | 12.6 µM (inactive)

Reference: ChEMBL document CHEMBL1201862, “PubChem BioAssay data set” (2004)
